Measurements as given in paper PMC8750417, “Intracellular Amplifiers of Reactive Oxygen Species Affecting Mitochondria as Radiosensitizers” (Cancers, 2021).

Tests used:
[1] = system: AsPC1 cells; test: Cell viability by flow cytometry, AsPC1; format: cell-based, human; details: AsPC1, 72 h incubation
Protocol: Table S3. Effects of the prodrugs on the viability of BL2 cell line (IC50 values) after 48 and […]
AsPC1 cells The cells (20.000/well) were seeded in a 12-well plate and incubated for 24 h. Afterwards, the medium was changed and the cells were further incubated for 72 h with medium containing different concentrations of compounds 2c and 5b. Viable cells were determined based on the morphological parameters by using flow cytometry (Table S4).
Table S4. Effects of the prodrugs on the viability of AsPC1 cell lines (IC50 values) after 72 […]
Jurkat cells The cells were counted in MUSE Cell Analyzer using MUSE® Count &Viability Assay Kit (Merck-Millipore, Billerica, MA, USA) and adjusted to a density of 1.0 x 10^5/ml in RPMI 1640 medium (with 10% FCS and 1% glutamine). 9.000 cells per well per 90 µL were seeded into 96 well culture plates. The 30 mM prodrug stock solutions in DMSO were diluted to 300 µM, 100 µM, 30 µM and 10 µM in cell culture medium and 10 µL of the dilutions was pipetted to the cells, receiving final test concentrations of 30 µM, 10 µM, 3 µM and 1 µM. Every concentration was tested in triplicates. Cells with corresponding amounts of DMSO served as negative controls. After 48 h cells were mixed and 25 µL of […]

[2] = Prodrug-induced generation of ROS in cell free settings (DCFH/H2O2); details: for ROS Release Efficacy: relative acceleration of the rate of DCFH fluorescence increase with H2O2, pH 7.4, FeSO4 = 1.0
Excerpt: As previously reported, the NAAF-prodrugs react with ROS like H2O2, first leading to the cleavage of the B-C-bond with the formation of the phenol derivatives (product 2c-1, Figure S49, SI). The latter compounds exist in equilibrium with the corresponding phenolates. The phenolates undergo the spontaneous 1,6-elimination of para-quinone methide (QM) followed by the release of CO2 with the formation of the N-alkylaminoferrocene NAAF drugs (product 2c-2, Figure S46, SI). By using electrospray ionization mass spectrometry (ESI–MS), we confirmed for one representative prodrug 2c that it reacts with H2O2 in cell free settings according to this common mechanism (ESI-MS, Figures S46–S48, SI). The NAAF is further oxidized by H2O2 or molecular oxygen with the generation of drug NAAF^+ and highly toxic HO• or/and O2^•−. Finally, the NAAF^+ is reduced by glutathione (GSH), thereby closing the catalytic cycle, in which the NAAF acts as a catalyst. We evaluated the formation of HO• or/and O2^•− by using 2′,7′-dichlorodihydrofluorescein (DCFH) as a probe (Table 1, Figure S49, SI). This probe is oxidized to the fluorescent product 2′,7′-dichlorofluorescein (DCF) in the presence of HO• or/and O2^•−. […] The lower activity of 2c and 2d correlates with their higher lipophilicity and their correspondingly higher propensity to form aggregates in aqueous solution (Figure S45, SI).
Prodrug-induced generation of ROS in cell free settings
2',7'-Dichlorodihydrofluorescein diacetate (DCFH-DA, 4.9 mg) was dissolved in DMF (100 μL) and mixed with aqueous NaOH (0.1 M, 900 μL). The resulting mixture was incubated for 30 min at 22 °C in the dark to obtain a stock solution of 2',7'-dichlorodihydrofluorescein (DCFH, 10 mM). Next, DCFH (1 µL ) was added to the solution containing MOPS buf fer (100 mM, pH 7.4), N,N,N'N' -e thylenediaminetetraacetic acid (EDTA , 10 mM) and glutathione (GSH , 5 mM) (1 mL, final concentration of DCFH 10 μM). The reaction mixture was heated to 37 °C and H2O2 (1 µL, final concentration 10 mM) was added. The reaction was monitored by fluorescence spectroscopy: λex = 501 nm, λem = 523 nm. After around 5 min, prodrugs (1 mM in DMF, 10 μL) or positive control FeSO4 (1 mM in water, 10 μL) were added, and the fluorescence monitoring was continued until the fluorescence signal growth was stalled after approximately 100 to 300 min. A representative kinetics of ROS […]
The data are presented in Table 1 as relative acceleration of the rate of the fluorescence increase, where the rate of the fluorescence increase obtained in the presence of positive control FeSO4 was set […]
y = a time + b (a = (dF/dt) , min-1)
Figure S49. Increase of the fluorescence intensity (λex = 501 nm, λem = 523 nm) upon oxidation of DCFH by H2O2 in the presence of FeSO4. Experimental details are provided in the description above. The time point of the FeSO4 addition is indicated with a black […]
(also on this page, place not known: ° C µL) buffer N,N,N'N'-ethylenediaminetetraacetic (EDTA, (GSH, ° C FeSO 4 (λ ex λ em Fluorescence (a.u.) (dF/dt)0, min -1 Addition of)
(1 picture or pasted object on this page, not shown here)

[3] = system: mononuclear cells (MNCs) from healthy donors; test: Viability of primary mononuclear cells (CellTiter Glo); format: cell-based, human; details: primary MNC from six healthy donors, 48 h
Protocol: Afterwards, the cells were washed with DPBS and a fresh portion of RPMI 1640 medium containing 5% FBS, 1% L-glutamine and 1% penicillin/streptomycin (1 mL) was added.
The fluorescence images were taken with a Zeiss Axio Vert.A1 fluorescence microscope […]
For SBLF9 the same procedure was applied except that Ham's F-12K (Kaighn's)-Medium supplemented with 15 % FBS, 2 % non-essential amino acid mix, and 1 % penicillin/streptomycin was used for cell seeding and incubation with the prodrug or the carrier. A cell density of 40 cells/µL was used.
Determination of viability of primary cancer (CLL) and normal (MNC) cells in the […]
Clinical samples from chronic lymphocytic leukemia (CLL) patients (N=6, CLL cells) and healthy donors (N=6; peripheral blood mononuclear cells, MNCs) were collected at the University Hospital Heidelberg, Germany. Informed consent was obtained in accordance with the Declaration of Helsinki. Sample collection and analysis was approved by the ethics committee of the University of Heidelberg (S-254/2016). Blood was separated by a Ficoll gradient (GE Healthcarey), and cells were cryopreserved. […]
4x10^4 cells per well. […] Cell viability was assessed by quantification of ATP (CellTiter Glo®, Promega) 48 hours after drug application.
Luminescence was measured on a Tecan Infinite F200 Microplate Reader. Viability was calculated as % of solvent (DMSO) treated control. […]

Compound	IC50 [1] [µM]	ROS-generating activity, fold lower than that of 2a and 2b ([2]; cell free DCFH assay)	ROS Release Efficacy [2]	IC50 [3] [µM]
CC1(C)OB(c2ccc(COC(=O)N(Cc3cccc(CN4CCCCC4)c3)[c-]3cccc3)cc2)OC1(C)C.[Fe+2].c1cc[cH-]c1 [5b]	6.7 ± 0.5	–	–	–
CC1(C)OB(c2ccc(COC(=O)N(Cc3cn(Cc4ccc(Cn5cc(Cc6ccccc6)nn5)cc4)nn3)[c-]3cccc3)cc2)OC1(C)C.[Fe+2].c1cc[cH-]c1 [2c]	7.1 ± 1	~ 2 fold	0.35 ± 0.17	12 ± 3
CCOC(=O)CCCCCn1cc(CN(C(=O)OCc2ccc(B3OC(C)(C)C(C)(C)O3)cc2)[c-]2cccc2)nn1.[Fe+2].c1cc[cH-]c1 [compound 1]	–	–	0.99 ± 0.16	–
